Test results: patent US20220202792A1, “METHODS AND COMPOSITIONS FOR TREATING CHRONIC INFLAMMATORY INJURY, METAPLASIA, DYSPLASIA AND CANCERS OF EPITHELIAL TISSUES” (University of Houston System, priority 2019, published 2022)

Tests used:
[1] = test system: esophageal squamous stem cells (ESO stem cells, Krt5+); test: High throughput chemical screening and dose response on GFP-labeled stem cells; assay type: cell-based, human; details: in the presence of 1 μM Ponatinib
[2] = test system: Barrett's stem cells and Esophageal stem cells; test: Co-culture of Barrett's stem cell lines and Esophageal stem cells; assay type: cell-based, human; details: in the presence of Ponatinib
[3] = test system: Barrett's stem cells (GFP) and esophageal squamous stem cells (RFP); test: 3D air-liquid interface (ALI) co-culture of Barrett's and esophageal stem cells; assay type: cell-based, human; details: in the presence of Ponatinib
Description: A 3D culture model was generated to mimic Barrett's Esophagus in vitro. The esophageal squamous stem cells and Barrett's stem cells were co-cultured in the transwell insert. Following the creation of air-liquid interface, it was observed that the BE islands located among well-differentiated squamous epithelium that well recapitulated the histology of human BE in the patient. Given the similarity of this artificial model and human pathology, the hits were tested in this system to further validate them. […] The esophageal squamous stem cells were labeled with red fluorescent protein (RFP) while Barrett's stem cells were labeled with green fluorescent protein (GFP). Without the treatment, it was observed that a mixture of GFP and RFP labeled cells in culture.

[4] = test system: Barrett's stem cells and esophageal squamous stem cells xenograft; test: Mouse xenograft of co-injected esophageal squamous and GFP labeled Barrett's stem cells; assay type: in vivo, mice
Source text: The effect of these chemicals on BE in a xenograft model was further examined. The esophageal squamous stem cells and GFP labeled Barrett's stem cells were mixed and co-injected into the immunodeficient mice. […] Two weeks following the treatment, the xenografts were collected and examined through histology analysis and clonogenic analysis.

[5] = test system: Barrett's, dysplasia or EAC stem cells; test: Co-culture of esophageal stem cells with Barrett's, dysplasia or EAC stem cells; assay type: cell-based, human; details: together with 1 μM Ponatinib
Description: FIG. 6. Patient-matched BE, dysplasia and cancer stem cells (Krt7+, Green) were mixed with Krt5+ (red) ESO cells and co-cultured for five days and then treated with seven selected drugs together with 1 μM Ponatinib.
BE has been known to be the precursor of the dysplastic and cancerous lesions of EAC. […] Moreover, PCA analysis of Barrett's stem cells derived from 12 patients together with dysplasia, cancer and Esophageal squamous stem cells confirmed that the stem cells of dysplasia and cancer shared very similar gene expression with Barrett's stem cells (FIGS. 4A & B). […] The effects of the eight drug hits in combination with Ponatinib were tested in the cell culture of co-seeding esophageal stem cells and Barrett's, dysplasia or EAC stem cells. […] Given these three entities always co-exist in patients with EAC, our strategies of eradicating all of them could help to eliminate the chance of recurrence of EAC patients drastically.

[6] = test system: BE, dysplasia and cancer stem cells; test: 3D (ALI) culture of patient-matched BE, dysplasia and cancer stem cells; assay type: cell-based, human; details: combined with Ponatinib
Source text: FIG. 5B. Left, Scanned images of top view of BE, dysplasia and cancer stem cells (green) generated ALI structures in the presence of absence of drug combinations.

JMJD2B (KDM4B) = biological target: T1, JMJD2B (KDM4B) (Homo sapiens, UniProt O94953); details: demethylase activity in vitro; cited from earlier work
T1 sequence (O94953 1-1096): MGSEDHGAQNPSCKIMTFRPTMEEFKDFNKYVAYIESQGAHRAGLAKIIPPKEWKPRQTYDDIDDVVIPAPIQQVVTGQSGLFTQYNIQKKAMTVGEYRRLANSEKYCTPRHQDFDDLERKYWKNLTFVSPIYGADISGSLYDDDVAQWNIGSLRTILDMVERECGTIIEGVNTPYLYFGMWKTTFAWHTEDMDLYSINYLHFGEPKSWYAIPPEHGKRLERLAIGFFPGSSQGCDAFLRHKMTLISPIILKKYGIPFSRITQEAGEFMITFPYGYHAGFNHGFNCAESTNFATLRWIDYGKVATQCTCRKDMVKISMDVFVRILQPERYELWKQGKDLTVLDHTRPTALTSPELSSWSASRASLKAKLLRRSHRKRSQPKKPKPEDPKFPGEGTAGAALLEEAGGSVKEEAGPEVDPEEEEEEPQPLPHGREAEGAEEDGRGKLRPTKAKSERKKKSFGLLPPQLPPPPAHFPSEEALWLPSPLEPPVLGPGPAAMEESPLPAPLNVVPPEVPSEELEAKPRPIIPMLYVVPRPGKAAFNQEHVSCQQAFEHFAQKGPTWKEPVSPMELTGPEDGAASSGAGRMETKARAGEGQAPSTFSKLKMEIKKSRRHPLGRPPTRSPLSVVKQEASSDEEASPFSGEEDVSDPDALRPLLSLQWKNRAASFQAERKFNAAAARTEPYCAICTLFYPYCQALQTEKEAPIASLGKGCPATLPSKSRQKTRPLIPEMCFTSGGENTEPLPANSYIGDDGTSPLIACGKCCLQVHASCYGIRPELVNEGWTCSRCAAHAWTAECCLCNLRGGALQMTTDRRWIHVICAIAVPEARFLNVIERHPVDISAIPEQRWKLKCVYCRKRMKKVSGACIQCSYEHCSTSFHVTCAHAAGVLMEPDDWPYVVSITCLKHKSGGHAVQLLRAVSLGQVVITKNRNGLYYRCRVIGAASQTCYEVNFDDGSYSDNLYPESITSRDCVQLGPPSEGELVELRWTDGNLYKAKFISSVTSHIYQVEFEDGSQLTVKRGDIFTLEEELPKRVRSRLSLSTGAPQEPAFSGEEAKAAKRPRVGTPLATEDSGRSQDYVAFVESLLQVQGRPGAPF

[7] = test system: aggressive breast cancer model; details: in vivo; cited from earlier work

In the case of `Clc1ccc(N/N=C(\c2ccccc2)c2ccccn2)nc1` [JIB04], the “effect on Esophageal stem cells” value [1] is reported as “without affecting”, the “effect on Esophageal squamous stem cells in co-culture” value [2] is reported as “promoting” and the “lethality to Barrett's stem cells in co-culture” value ([2]; nine Barrett's stem cell lines) is reported as “uniform lethality to all Barrett's stem cells”. For the same compound, the “cross sections of the ALI structures” value [3] was “intact esophageal squamous epithelium without any existence of Barrett's epithelium”, the “GFP labeled Barrett's stem cells in 3D ALI co-culture” value ([3]; eight Barrett's stem cell lines) was “disappearance” and the “BE stem cells in treated structures (histological analysis)” value ([4]; NSG mice, with Ponatinib) was “not detected”. For the same compound, the “Krt5+ ESO structures in treated samples” value ([4]; NSG mice, with Ponatinib) was “visibly more robust”, the “clonogenic Barrett's stem cells from xenografts” value ([4]; combination with Ponatinib, clonogenic analysis) was “lack of clonogenic Barrett's stem cells” and the “Barrett's structures in xenografts (histology)” value ([4]; combination with Ponatinib, intraperitoneally, two weeks following the treatment) was “total loss”. The “growth of BE, dysplasia and cancer stem cells in co-culture with ESO cells” value [5] was “most effective”, the “eradication of BE, dysplasia and cancer stem cells in 3D (ALI) culture” value [6] was “eradicate” and the IC50 (JMJD2B (KDM4B)) was ~440 nM. The “tumor burden and survival of mice” value [7] was “reduces tumor burden and prolongs survival”.
